In patent US11166972B2, “Compositions comprising nicotinamide riboside and a urolithin” (Amazentis SA, priority 2015, dated 2021):

Tested on: mitochondrial respiratory subunits proteins in C2C12 myoblasts
Test: Western blot of mitochondrial respiratory subunits proteins in C2C12 myoblasts (Example 6)
Assay type: cell-based
Conditions: 48 hours
Protocol: C2C12 myoblasts were cultured in Dulbecco's modified Eagle's medium (DMEM) including 4.5 g/L glucose, 10% fetal calf serum, and 50 μg/mL gentamicin. Urolithin A (UA) was dissolved in DMSO in a stock solution of 50 mM. Nicotinamide riboside (NR) in the form of the triflate salt was dissolved in double-distilled water in a stock solution of 1 M. One hundred thousand cells were plated at time 0 hours in 6-wells plates. A total of 3 wells was used per condition (n=3 per group). Cells were treated in a volume of 2 ml for a period of 48 hours at final concentrations of (a) DMSO 0.1%, (b) 25 μM UA, (c) 0.1 mM NR, (d) 1 mM NR, (e) 25 μM UA+0.1 mM NR and (f) 25 μM UA+1 mM NR. At the end of the treatment, cells were lysed with cell lysis buffer (#9803, Cell signalling) containing protease (cOmplete™, Roche) and phosphatase inhibitor (PhosSTOP™, Roche) and applied to Invitrogen NuPage® Novex® Gel System (Bis-Tris Protein Gels −4-12%, Thermo fisher Scientific). Protein levels were examined for mitochondrial respiratory subunits, including mitochondrially encoded cytochrome c oxidase I (MTCO1), succinate dehydrogenase complex flavoprotein subunit A (SDHA) and B (SDHB), ubiquinol-cytochrome c reductase core protein II (UQCRC2) and ATP synthase, H+ transporting, mitochondrial F1 complex, alpha subunit 1 (ATP5A). The housekeeping protein tubulin-α was measured as a loading control. Detection of the proteins was performed using an Azure c300 (Azure biosystem) (FIG. 1B). Western Blot images were representative of the three biological replicates. Experiments were repeated at least 2 times. Bands were quantified using ImageJ software. The heatmap of the band intensities was drawn using GEN-E (Broad Institute) conditional formatting. Control DMSO values were set to one (FIG. 1A).

Compound	ATP5A protein level, change vs DMSO control (NR 0.1 mM)	SDHB protein level, change vs DMSO control (NR 0.1 mM)	MT-CO1 protein level, change vs DMSO control (NR 0.1 mM, decrease (printed −≈10%))	SDHA protein level, change vs DMSO control (NR 0.1 mM, increase)	UQCRC2 protein level, change vs DMSO control (NR 0.1 mM, increase (+≈))	SDHB protein level, change vs DMSO control (NR 1 mM)	ATP5A protein level, decrease vs DMSO control (NR 1 mM, decrease) [%]	MT-CO1 protein level, change vs DMSO control (NR 1 mM, decrease (printed −≈10%))	SDHA protein level, change vs DMSO control (NR 1 mM, increase)	UQCRC2 protein level, change vs DMSO control (NR 1 mM, increase (+≈))	ATP5A protein level, change vs DMSO control (UA 25 μM alone)	MT-CO1 protein level, change vs DMSO control (UA 25 μM alone, increase)	SDHA protein level, change vs DMSO control (UA 25 μM alone, increase)	SDHB protein level, change vs DMSO control (UA 25 μM alone, increase)	UQCRC2 protein level, change vs DMSO control (UA 25 μM alone, increase)
Nicotinamide riboside [NR]	no effect	no change	≈ 10%	≈ 100%	≈ 10%	no change	20	≈ 10%	≈ 100%	≈ 10%	–	–	–	–	–
O=c1oc2cc(O)ccc2c2ccc(O)cc12 [UA, Urolithin A]	–	–	–	–	–	–	–	–	–	–	no change	+14%	+54%	+10%	+26%
